The term pKi denotes the negative decadic logarithm of the Ki, by convention in mol/L.

Consider 45 molecules from ChEMBL document CHEMBL1681655, “Identification of a new series of non-peptidic NK3 receptor antagonists” (Bioorg Med Chem Lett, 2011).

pKi: −log10 of the molar value.

In the first data set the target is T1, Neuromedin-K receptor (Homo sapiens, UniProt P29371).
T1 sequence (P29371 whole entry): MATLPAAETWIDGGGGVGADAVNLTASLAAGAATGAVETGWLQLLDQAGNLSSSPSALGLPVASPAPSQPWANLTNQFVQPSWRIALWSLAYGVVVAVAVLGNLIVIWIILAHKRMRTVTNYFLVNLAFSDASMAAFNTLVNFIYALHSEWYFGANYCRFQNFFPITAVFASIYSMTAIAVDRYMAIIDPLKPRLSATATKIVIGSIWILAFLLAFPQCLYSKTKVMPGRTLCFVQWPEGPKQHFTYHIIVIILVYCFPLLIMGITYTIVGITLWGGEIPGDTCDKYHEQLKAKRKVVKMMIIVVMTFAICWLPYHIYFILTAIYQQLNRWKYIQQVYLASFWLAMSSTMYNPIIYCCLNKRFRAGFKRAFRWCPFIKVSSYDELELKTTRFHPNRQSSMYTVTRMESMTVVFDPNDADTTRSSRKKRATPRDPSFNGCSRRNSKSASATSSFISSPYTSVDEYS
Nature of the data set: Displacement of [3H]Lu AE93103 from human NK3 receptor expressed in BHK cells. Format: cell-based. Background: In a radioligand displacement assay an active substance lowers the binding of a labelled ligand.
The molecule `CC(=O)NC1(c2ccccc2)CCN(C[C@H]2C[C@]2(C(=O)N(C)Cc2ccccc2)c2ccc(Cl)c(Cl)c2)CC1` showed a pKi of 7.08. The same measure, in the same setting: for `CC(=O)NC1(c2ccccc2)CCN(C[C@@H]2C[C@@]2(C(=O)N(C)Cc2ccc(F)cc2)c2ccc(Cl)c(Cl)c2)CC1` the value was 8.24; for `CC(=O)NC1(c2ccccc2)CCN(C[C@@H]2C[C@@]2(C(=O)N(C)Cc2ccc(F)cc2)c2ccc(F)cc2)CC1`, 7.17; for `CC(=O)NC1(c2ccccc2)CCN(C[C@@H]2C[C@@]2(C(=O)N(C)Cc2ccc(F)cc2)c2ccc(Cl)cc2)CC1`, 7.44. The same measure, in the same setting: for `CC(=O)NC1(c2ccccc2)CCN(C[C@@H]2C[C@@]2(C(=O)N(C)Cc2ccc(F)cc2)c2ccc(C)cc2)CC1` the value was 7.43; for `COc1ccc([C@]2(C(=O)N(C)Cc3ccc(F)cc3)C[C@H]2CN2CCC(NC(C)=O)(c3ccccc3)CC2)cc1`, 6.46. `CC(=O)NC1(c2ccccc2)CCN(C[C@@H]2C[C@@]2(C(=O)N(C)Cc2ccc(F)cc2)c2ccc(C(F)(F)F)cc2)CC1` gave a pKi of 6.00.

In turn, `CC(=O)NC1(c2ccccc2)CCN(C[C@@H]2C[C@@]2(C(=O)N(C)Cc2ccc(F)cc2)c2ccc(C#N)cc2)CC1` had a pKi of 6.57. On the same count and under the same terms, for `CC(=O)NC1(c2ccccc2)CCN(C[C@@H]2C[C@@]2(C(=O)N(C)Cc2ccc(F)cc2)c2cccc(F)c2)CC1` the value was 6.85. Still for that read-out and setting: for `CC(=O)NC1(c2ccccc2)CCN(C[C@@H]2C[C@@]2(C(=O)N(C)Cc2ccc(F)cc2)c2cccc(Cl)c2)CC1` the value was 7.49; for `CC(=O)NC1(c2ccccc2)CCN(C[C@@H]2C[C@@]2(C(=O)N(C)Cc2ccc(F)cc2)c2cccc(C)c2)CC1`, 7.40; for `COc1cccc([C@]2(C(=O)N(C)Cc3ccc(F)cc3)C[C@H]2CN2CCC(NC(C)=O)(c3ccccc3)CC2)c1`, 7.25. Molecule `CC(=O)NC1(c2ccccc2)CCN(C[C@@H]2C[C@@]2(C(=O)N(C)Cc2ccc(F)cc2)c2cccc(C(F)(F)F)c2)CC1` showed a pKi of 6.68. The same measure, in the same setting: for `CC(=O)NC1(c2ccccc2)CCN(C[C@@H]2C[C@@]2(C(=O)N(C)Cc2ccc(F)cc2)c2cccc(C#N)c2)CC1` the value was 5.72; for `CC(=O)NC1(c2ccccc2)CCN(C[C@@H]2C[C@@]2(C(=O)N(C)Cc2ccc(F)cc2)c2ccc(F)c(F)c2)CC1`, 7.33; for `CC(=O)NC1(c2ccccc2)CCN(C[C@@H]2C[C@@]2(C(=O)N(C)Cc2ccc(F)cc2)c2cc(Cl)cc(Cl)c2)CC1`, 7.05. As for `CC(=O)NC1(c2ccccc2)CCN(C[C@@H]2C[C@@]2(C(=O)N(C)Cc2ccc(F)cc2)c2ccc(C)c(C)c2)CC1`, the pKi was 8.14.

The molecule `CC(=O)NC1(c2ccccc2)CCN(C[C@@H]2C[C@@]2(C(=O)N(C)Cc2ccc(F)cc2)c2ccc3c(c2)OCO3)CC1` showed a pKi of 6.85.

For the molecule `CC(=O)NC1(c2ccccc2)CCN(C[C@@H]2C[C@]2(C(=O)N(C)Cc2ccc(F)cc2)c2cccs2)CC1`, the pKi is 7.03.

On to `CC(=O)NC1(c2ccccc2)CCN(C[C@@H]2C[C@@]2(C(=O)N(C)Cc2ccc(F)cc2)c2ccsc2)CC1`, for which the pKi is 6.96. Same read-out and setting: the same measure for `CN(C)C(=O)NC1(c2ccccc2)CCN(C[C@@H]2C[C@@]2(C(=O)N(C)Cc2ccccc2)c2ccc(Cl)c(Cl)c2)CC1`: 8.55; for `CN(Cc1ccc(F)cc1)C(=O)[C@@]1(c2ccc(Cl)c(Cl)c2)C[C@H]1CN1CCN(CCN2CCOCC2)CC1`: 8.43; for `CN(Cc1ccc(F)cc1)C(=O)[C@@]1(c2ccc(Cl)c(Cl)c2)C[C@H]1CN1CCN(S(=O)(=O)N2CCCC2)CC1`: 8.24. Still for that read-out and setting: the same measure for `CC(=O)NC1(c2ccccc2)CCN(CC2CC2(C(=O)N(C)Cc2ccc(C)cc2)c2ccc(Cl)c(Cl)c2)CC1` (racemic): 8.12. On the same count and under the same terms, for `CC(=O)NC1(c2ccccc2)CCN(CC2CC2(C(=O)N(C)Cc2ccccc2Cl)c2ccc(Cl)c(Cl)c2)CC1` (racemic) the value was 7.70; for `CC(=O)NC1(c2ccccc2)CCN(CC2CC2(C(=O)N(C)Cc2ccccc2F)c2ccc(Cl)c(Cl)c2)CC1` (racemic), 7.74. Turning to `CC(=O)NC1(c2ccccc2)CCN(CC2CC2(C(=O)N(C)Cc2ccccc2C)c2ccc(Cl)c(Cl)c2)CC1` (racemic), the pKi was 8.28. `COc1ccccc1CN(C)C(=O)C1(c2ccc(Cl)c(Cl)c2)CC1CN1CCC(NC(C)=O)(c2ccccc2)CC1` (racemic) showed a pKi of 7.85.

`CC(=O)NC1(c2ccccc2)CCN(CC2CC2(C(=O)N(C)Cc2cccc(F)c2)c2ccc(Cl)c(Cl)c2)CC1` (racemic) had a pKi of 7.92. `CC(=O)NC1(c2ccccc2)CCN(CC2CC2(C(=O)N(C)Cc2cccc(Cl)c2)c2ccc(Cl)c(Cl)c2)CC1` (racemic) showed a pKi of 7.62. Still for that read-out and setting: the same measure for `COc1cccc(CN(C)C(=O)C2(c3ccc(Cl)c(Cl)c3)CC2CN2CCC(NC(C)=O)(c3ccccc3)CC2)c1` (racemic): 7.48; for `CC(=O)NC1(c2ccccc2)CCN(CC2CC2(C(=O)N(C)Cc2cccc(C(F)(F)F)c2)c2ccc(Cl)c(Cl)c2)CC1` (racemic): 7.30; for `CC(=O)NC1(c2ccccc2)CCN(CC2CC2(C(=O)N(C)Cc2ccc(Cl)cc2)c2ccc(Cl)c(Cl)c2)CC1` (racemic): 7.96.

As to `COc1ccc(CN(C)C(=O)C2(c3ccc(Cl)c(Cl)c3)CC2CN2CCC(NC(C)=O)(c3ccccc3)CC2)cc1` (racemic), the pKi is 7.82. `CC(=O)NC1(c2ccccc2)CCN(CC2CC2(C(=O)N(C)Cc2ccc(C(F)(F)F)cc2)c2ccc(Cl)c(Cl)c2)CC1` (racemic) had a pKi of 8.34. Same read-out and setting: the same measure for `CSc1ccc(CN(C)C(=O)C2(c3ccc(Cl)c(Cl)c3)CC2CN2CCC(NC(C)=O)(c3ccccc3)CC2)cc1` (racemic): 7.55. On to `CC(=O)NC1(c2ccccc2)CCN(CC2CC2(C(=O)N(C)Cc2cccc(Cl)c2Cl)c2ccc(Cl)c(Cl)c2)CC1` (racemic), for which the pKi was 7.62. For the molecule `CC(=O)NC1(c2ccccc2)CCN(CC2CC2(C(=O)N(C)Cc2ccc(Cl)cc2Cl)c2ccc(Cl)c(Cl)c2)CC1` (racemic), the pKi is 7.80.

Turning to `CC(=O)NC1(c2ccccc2)CCN(CC2CC2(C(=O)N(C)Cc2ccc(Cl)c(Cl)c2)c2ccc(Cl)c(Cl)c2)CC1` (racemic), the pKi was 7.89. Still for that read-out and setting: the same measure for `CC(=O)NC1(c2ccccc2)CCN(CC2CC2(C(=O)N(C)Cc2cc(Cl)cc(Cl)c2)c2ccc(Cl)c(Cl)c2)CC1` (racemic): 7.64; for `COc1ccc(CN(C)C(=O)C2(c3ccc(Cl)c(Cl)c3)CC2CN2CCC(NC(C)=O)(c3ccccc3)CC2)c(OC)c1` (racemic): 8.23. Still for that read-out and setting: the same measure for `COc1ccc(CN(C)C(=O)C2(c3ccc(Cl)c(Cl)c3)CC2CN2CCC(NC(C)=O)(c3ccccc3)CC2)cc1OC` (racemic): 7.17.

Turning to `COc1cc(CN(C)C(=O)C2(c3ccc(Cl)c(Cl)c3)CC2CN2CCC(NC(C)=O)(c3ccccc3)CC2)cc(OC)c1` (racemic), the pKi is 7.49. This pKi is 0.32 log units higher than that of the molecule before. On to `CC(=O)NC1(c2ccccc2)CCN(CC2CC2(C(=O)N(C)Cc2cccs2)c2ccc(Cl)c(Cl)c2)CC1` (racemic), for which the pKi was 7.15. On the same count and under the same terms, for `CC(=O)NC1(c2ccccc2)CCN(CC2CC2(C(=O)N(C)Cc2ccsc2)c2ccc(Cl)c(Cl)c2)CC1` (racemic) the value was 7.85.

Another data set has as its system Liver microsomes. As to the kind of experiment: Intrinsic clearance in human liver microsomes. The class given is ADME, Microsome.
In the case of `CN(C)C(=O)NC1(c2ccccc2)CCN(C[C@@H]2C[C@@]2(C(=O)N(C)Cc2ccccc2)c2ccc(Cl)c(Cl)c2)CC1`, the CL is over 20 L/min.

Take `CN(Cc1ccc(F)cc1)C(=O)[C@@]1(c2ccc(Cl)c(Cl)c2)C[C@H]1CN1CCN(CCN2CCOCC2)CC1`: the CL came out at 4.3 L/min. On the same count and under the same terms, for `CN(Cc1ccc(F)cc1)C(=O)[C@@]1(c2ccc(Cl)c(Cl)c2)C[C@H]1CN1CCN(S(=O)(=O)N2CCCC2)CC1` the value was over 20 L/min.
